Tests used:
AhR [1] = system: AhR; set-up: method as in Jinno et al., 2006; details: ref Jinno et al., 2006, read-out: reporter assay EC50; cited from earlier work
[2] = molecular target: T1, aryl hydrocarbon receptor (AhR) (Homo sapiens, UniProt P35869); assay: AhR luciferase reporter assay in HepG2 cells; format: cell-based
T1 construct: endogenous in cells; host or cells: HepG2
T1 sequence (P35869 11-848): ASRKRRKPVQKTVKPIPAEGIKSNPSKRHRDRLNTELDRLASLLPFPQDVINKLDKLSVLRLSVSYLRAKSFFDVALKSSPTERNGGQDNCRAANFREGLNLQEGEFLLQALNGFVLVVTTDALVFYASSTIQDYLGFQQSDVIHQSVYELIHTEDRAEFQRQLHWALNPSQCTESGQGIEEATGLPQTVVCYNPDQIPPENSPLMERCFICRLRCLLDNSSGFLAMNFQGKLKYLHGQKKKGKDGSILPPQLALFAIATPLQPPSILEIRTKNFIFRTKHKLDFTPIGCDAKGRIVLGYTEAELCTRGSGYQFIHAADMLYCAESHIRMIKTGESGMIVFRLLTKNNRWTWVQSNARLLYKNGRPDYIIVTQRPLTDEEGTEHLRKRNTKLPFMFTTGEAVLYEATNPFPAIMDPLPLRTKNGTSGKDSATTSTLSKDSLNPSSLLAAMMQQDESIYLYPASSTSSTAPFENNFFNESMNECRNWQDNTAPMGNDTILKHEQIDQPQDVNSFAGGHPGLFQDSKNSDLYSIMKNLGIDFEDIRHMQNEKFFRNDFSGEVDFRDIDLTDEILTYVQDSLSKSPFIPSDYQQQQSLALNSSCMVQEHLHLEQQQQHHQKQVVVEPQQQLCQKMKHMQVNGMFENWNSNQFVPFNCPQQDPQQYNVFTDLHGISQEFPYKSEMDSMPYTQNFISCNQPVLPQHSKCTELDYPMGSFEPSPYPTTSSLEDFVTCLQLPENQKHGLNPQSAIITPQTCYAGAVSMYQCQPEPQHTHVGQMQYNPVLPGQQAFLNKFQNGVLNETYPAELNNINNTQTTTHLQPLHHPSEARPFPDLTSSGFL
Description: HepG2 cells were transiently transfected overnight with the construct (1200 bp portion of the human CYP1A1 promoter region containing 2 copies of the functional consensus sequence for the DRE in luc2P luciferase vector (SwitchGear Genomics cat# 114555, Menlo Park, CA) using lipofectin (Invitrogen Life Technologies) at 500 ng construct per million cells. Following transfection, the cells were replated in a 96-well format and dosed for 24 h with 0.1% (v/v) DMSO vehicle, 3-MC at 0.05, 0.1, 0.5, 1, 5, 10 μM, and A-998679 at 1.5625, 3.125, 6.25, 12.5, 25, and 50 μM. Luminescence signal was generated using the Dual-Luciferase Reporter Assay System (Promega, Madison, WI) and detected with a Tecan Genios Pro reader (Männedorf, Switzerland).

AhR [3] = molecular target: T2, AhR (Homo sapiens, UniProt P35869); assay: AhR nuclear translocation assay in HepG2 cells; format: cell-based; details: 2 μM
T2 construct: endogenous in cells; host or cells: HepG2
T2 sequence (P35869 11-848): T1 sequence (P35869 11-848)
Description: HepG2 cells were plated in Lab-Tek II Chamber slides (Nalgene, Rochester, NY) at a seeding density of 50,000 cells/well. The cells were allowed to attach overnight and were treated for 2 h or 24 h with 10 or 40 μM A-998679, 2 μM 3-methylchloranthrene (3-MC) as a positive control, or 0.1% (v/v) DMSO vehicle. The cells were fixed in fresh 3% paraformaldehyde solution in PBS followed by a PBS wash, and were then permeabilized for 5 min using 0.2% Triton X-100 in PBS followed by another PBS wash. The cells were then incubated with blocking buffer consisting of 1% BSA/PBS solutions and immediately incubated with a 1:50 dilution of rabbit polyclonal antibody to AhR (Abcam, Cambridge, MA catalog# 63636) for 1 h at 37°C. Cells were then washed with PBS, re-blocked for 10 min, and stained with an Alexa 546 donkey anti-rabbit secondary antibody (diluted 1:200; Invitrogen Life Technologies) for 45 min at 37°C. The cells were then washed with PBS, stained with 0.5 μM Hoescht solution for 15 min, and again washed with PBS. The chamber slides were sealed and examined under the microscope. Images were acquired with a SPOT RT SE digital camera (Diagnostic Instruments, Sterling Heights, MI) mounted on a Leica (Wetzlar, Germany) DMIRE inverted florescence microscope using a 20× objective. Image acquisition was done using Metamorph® software (Molecular Devices, Sunnyvale, CA) and percent translocation of the AhR probe was quantitated using MetaXpress (Molecular Devices). Twenty microscope fields were evaluated per well (~3000–6000 cells/well).

AhR [4] = system: AhR; set-up: method as in Nguyen and Bradfield, 2008; Mitchell and Elferink, 2009; details: ref Nguyen and Bradfield, 2008, Mitchell and Elferink, 2009; cited from earlier work

## C[C@]12CCc3c(ccc4cc(O)ccc34)[C@@H]1CCC2=O [equilenin]
AhR [1]
  EC50: ~10 µM

## Cc1ccc2cc3c(ccc4ccccc43)c3c2c1CC3 [3MC, 3-methylcholanthrene, reference compound]
[2]; luciferase reporter
  potency to activate AhR relative to A-998679: ~ 8 fold
[2]; luciferase reporter with human DRE construct, 24 h, read-out: EC50, activation of AhR signaling
  EC50: 2.1 µM
[2]; luciferase reporter, 24 h
  maximal increase over vehicle: 97 fold
AhR [3]; 2 h, vehicle 15.6
  AhR nuclear staining (% positive cells) 2 h: 26.3 % positive cells
AhR [3]; 24 h, vehicle 3.4
  AhR nuclear staining (% positive cells) 24 h: 11.1 % positive cells

## Clc1cc2c(cc1Cl)Oc1cc(Cl)c(Cl)cc1O2 [TCDD, 2,3,7,8-Tetrachlorodibenzo-p-dioxin]
AhR [4]
  binding EC50: ~ pM to nM range

Source: paper PMC3481155, “AhR activation underlies the CYP1A autoinduction by A-998679 in rats” (Frontiers in Genetics, 2012)
